The values that follow come from patent US9376391B2, “Difluoromethyl-nicotinic-tetrahydronaphthyl carboxamides as fungicides” (BAYER CROPSCIENCE AKTIENGESELLSCHAFT, priority 2012, dated 2016).

SMILES strings stand for the structures.

One series relates to Botrytis cinerea. Description: In vivo preventive test on Botrytis cinerea (grey mould), gherkin plants. In short, it runs like this: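 Gherkin plants sprayed at Z11 cotyledon stage with compound in acetone/tween/DMSO/water, inoculated 24 h later with B. cinerea spores (50 000 spores per ml) in nutrient solution. Kept at 17° C., 90% relative humidity; % efficacy graded 4 to 5 days post-inoculation versus solvent-treated controls.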

The next series deals with Phakopsora pachyrhizi. The series can be described thus: Phakopsora test (soybeans)/preventive. To be noted: 100 ppm of active ingredient, evaluated 7 days after inoculation. Format: in vivo. How it is done:
Phakopsora Test (Soybeans)/Preventive
(§1) To produce a suitable preparation of active compound, 1 part by weight of active compound is mixed with the stated amounts of solvent and emulsifier, and the concentrate is diluted with water to the desired concentration.
To test for preventive activity, young plants are sprayed with the preparation of active compound at the stated rate of application. After the spray coating has dried on, the plants are inoculated with an aqueous spore suspension of the causal agent of soybean rust (Phakopsora pachyrhizi) and stay for 24 h without light in an incubation cabinet at approximately 24° C. and a relative atmospheric humidity of 95%.
The plants remain in the incubation cabinet at approximately 24° C. and a relative atmospheric humidity of approximately 80% and a day/night interval of 12 h.
The test is evaluated 7 days after the inoculation. 0% means an efficacy which corresponds to that of the untreated control, while an efficacy of 100% means that no disease is observed.

The subject of another series is Puccinia recondita. The series can be described thus: In vivo preventive test on Puccinia recondita (brown rust on wheat). Put shortly: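 Wheat seedlings ("Scipion") sprayed with compound at the 1-leaf stage, inoculated 24 h later with Puccinia recondita spores (100 000 spores per ml). Incubated 24 h at 20° C and 100% RH, then 10 days at 20° C and 70-80% RH. Efficacy (%) versus solvent-treated controls graded 12 days after contamination.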

Series [1] is described as follows: log P by HPLC on reversed phase columns (EEC directive 79/831 Annex V.A8). The class given is physicochemical. The note with it: Table 1, formula (I); HPLC/LC-MS at pH 2.7, 0.1% formic acid in water / acetonitrile, gradient 10% to 95%.
In another series the test system is Pyrenophora teres. Description: In vivo preventive test on Pyrenophora teres (net blotch on barley).
A further series relates to Venturia inaequalis. Description: Venturia test (apples)/preventive. Format: in vivo. To be noted: 100 ppm of active ingredient, evaluated 10 days after inoculation. How it is done:
Venturia Test (Apples)/Preventive
as §1
To test for preventive activity, young plants are sprayed with the preparation of active compound at the stated rate of application. After the spray coating has dried on, the plants are inoculated with an aqueous conidia suspension of the causal agent of apple scab (Venturia inaequalis) and then remain for 1 day in an incubation cabinet at approximately 20° C. and a relative atmospheric humidity of 100%.
The plants are then placed in a greenhouse at approximately 21° C. and a relative atmospheric humidity of approximately 90%.
The test is evaluated 10 days after the inoculation. 0% means an efficacy which corresponds to that of the untreated control, while an efficacy of 100% means that no disease is observed.

Another series deals with Uromyces appendiculatus. The series can be described thus: In vivo preventive test on Uromyces appendiculatus (bean rust). To be noted: 500 ppm, preventive spray, bean plants, grading 11 days after contamination. Put shortly:
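'Saxa' bean plants at the 2-leaf stage were sprayed with compound and inoculated 24 h later with U. appendiculatus spores (150 000 spores per ml). Plants were incubated 24 h at 20 °C and 100% RH, then 10 days at 20 °C and 70–80% RH. Percent efficacy versus solvent-treated controls was graded 11 days post-inoculation.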

The next series has as its system Sphaerotheca fuliginea. Description: In vivo preventive test on Sphaerotheca fuliginea (powdery mildew on cucurbits). In short, it runs like this: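 Gherkin plants at Z11 cotyledon stage were sprayed with compound in acetone/tween/DMSO/water. After 24 h they were inoculated with S. fuliginea spores (100 000 spores per ml) and incubated at about 20° C and 70-80% RH. Percent efficacy versus solvent-treated controls was scored 12 days post-inoculation.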

The mark [2] stands for this setting: dose 100 ppm of active ingredient, comparison with known compounds.
[3] abbreviates: dose 100 ppm, comparison with known compounds, same conditions.

With `CC1CC(C)(C)c2cccc(NC(=O)c3cccnc3C(F)F)c21` (stereo not shown) [Example 1], the “protection (in words)” value with Botrytis cinerea (setting [2]), in the series with Puccinia recondita (setting [2]), with Pyrenophora teres (setting [2]) and in the series with Sphaerotheca fuliginea (setting [2]) was “total protection” each time. Further, the Efficacy with Botrytis cinerea (setting [3]) stood at 100%; with Puccinia recondita (setting [3]), 100%; in the series with Pyrenophora teres (setting [3]), 100%; with Sphaerotheca fuliginea (dose 100 ppm, comparison with prior-art compounds, gherkin plants, grading 12 days after contamination) it was 100%. The Eff. % was 100% with Botrytis cinerea (dose 500 ppm, gherkin, spray, graded 4 to 5 days after contamination vs control plants); 99% in the series with Phakopsora pachyrhizi; 100% in the series on Puccinia recondita (dose 500 ppm, wheat, spray, graded 12 days after contamination vs control plants); 100% in the series on Pyrenophora teres (dose 500 ppm, barley, spray, graded 14 days after contamination vs control plants); 100% in the series on Venturia inaequalis; 100% with Uromyces appendiculatus. Besides, in the series with Sphaerotheca fuliginea (500 ppm, preventive spray, gherkin plants, grading 12 days after contamination), the Eff. % was determined as 100%. Further, the “logP^[a]” value in series [1] is 3.29^[a].
